Assay results published in patent US20050239358A1, “Antimicrobial melamine resin and products made therefrom” (MICROBAN PRODUCTS COMPANY, priority 2002, published 2005).

Tested on: bacteria and fungi
Assay: antimicrobial efficacy of agents in melamine formaldehyde resin
Conditions: agent for melamine resin; stated in words, no test described

| Compound | efficacy as antimicrobial agent |
| --- | --- |
| O=c1[nH]sc2ccccc12 [1,2-benzisothiazolin-3-one] | efficacious |
| CCCCCCCCn1sc(Cl)c(Cl)c1=O [4,5-dichloro-2-N-octyl-3(2H)-isothiazolone] | efficacious |
| CCCCn1sc2ccccc2c1=O [N-butyl-1,2-benzisothiazolin-3-one] | efficacious |
| Oc1cc(Cl)ccc1Oc1ccc(Cl)cc1Cl [Triclosan, 2,4,4′-trichloro-2′-hydroxydiphenyl ether] | particularly efficacious |
| Cn1sc(Cl)cc1=O [chloro-2-methyl-3(2H)-isothiazolone] | efficacious |
| Cn1sccc1=O [methyl-3(2H)-isothiazolone] | efficacious |

Tested on: not given
Assay: not given
Conditions: at 20° C.; cited from earlier work

| Compound | vapor pressure |
| --- | --- |
| Oc1cc(Cl)ccc1Oc1ccc(Cl)cc1Cl [Triclosan, 2,4,4′-trichloro-2′-hydroxydiphenyl ether] | 4×10^−4 mm |
